Here are results for ten molecules from patent US12291537B2, “Compounds, compositions and methods” (priority 2022, dated 2025).

Square brackets hold non-standard residues; d marks the D form. Peptide text beside a SMILES is read from it. * marks the point of attachment. Dolaproine = CO[C@@H]([C@@H]1CCCN1)[C@@H](C)C(=O)O; Dil = CC[C@H](C)[C@H](NC)[C@@H](CC(=O)O)OC; X1 = C[C@@H](N*)[C@@H](O)c1ccccc1; NMeV = CN[C@H](C(=O)O)C(C)C

Type in all cases: cell-based
Data set [1] can be described thus: Cytotoxicity testing of compounds (cell titer-Glo), second round. The following applies: human. The protocol:
(§1) HT-29 (colorectal cancer) and MDA-MB-468 (TNBC) cells were harvested and seeded with 3000 cell per well into 96-well cell culture plates respectively. They were then incubated at 37° C., 5% CO2 for overnight. Each compound was diluted 3-fold from 500 nM, and added to each well respectively. After 5 days, 30 μL cell titer-Glo Luminescent buffer was added to each well and the plate was incubated for 20 min at room temperature. Luminescence signal was detected by the Envison microplatereader.
(§2) In a second round of testing, C-2a and C-2b, along with 6 other compounds (C-1a, C-1b, C-3a, C-3b, C-5a, and C-4a) were tested with the same cell lines plus A549, a NSCLC cell line.

For the next data set, the system named is A549, a NSCLC cell line. Described as above. The conditions noted are these: A549, second round (Table 2). The protocol: as §1, §2
The subject of a further data set is MDA-MB-468 (TNBC) cells. In words: Cytotoxicity testing of compounds (cell titer-Glo). Here is the method: (§3) They were then incubated at 37° C., 5% CO2 for overnight. […] After 5 days, 30 μL cell titer-Glo Luminescent buffer was added to each well and the plate was incubated for 20 min at room temperature. Luminescence signal was detected by the Envison microplatereader.
On the technique in general: ATP-based viability assays read luminescence as a measure of living cells.

Data set [2] deals with HT-29 (colorectal cancer) cells. In words: Cytotoxicity testing of compounds (cell titer-Glo). Here is the method: as §3
The nature of data set [3]: Cytotoxicity testing of compounds (cell titer-Glo). The conditions noted are these: human, Min cell viability. Here is the method:
as §3

The test system of data set [4] is HT-29, MDA-MB-468 and A549 cells. As to the kind of experiment: Cytotoxicity testing of compounds, text statements over the cell lines. The following applies: first round; HT-29 and MDA-MB-468. The protocol:
as §1, §2

The mark [5] stands for this setting: Homo sapiens, second round (Table 2).
Setting [6] is: Homo sapiens, HT-29, HT29, second round (Table 2).
Setting [7] is: Homo sapiens, 120 h, first round (Table 1), 5 days.
Setting [8] is: Homo sapiens, HT-29, 120 h, HT29, first round (Table 1), 5 days.
Setting [9] is: HT29, first round (Table 1), 5 days.

In data set [1], `CC[C@@]1(O)C(=O)OCc2c1cc1n(c2=O)Cc2c-1nc1cc(F)c(C)c3c1c2CC(N)C3` (mixture of isomers) [Compound C-5a] registered a viability at 5 days of 19.4%. Moreover, the IC50 is 0.022 µM with A549, a NSCLC cell line (Homo sapiens); 0.0024 µM with MDA-MB-468 (TNBC) cells (setting [5]); 0.0266 µM in data set [2] (setting [6]).

For `CC[C@@]1(O)C(=O)OCc2c1cc1n(c2=O)Cc2c-1nc1cc(F)c(C)c3c1c2CC[C@@H]3N` [Compound C-1a], the viability at 5 days in data set [1] turned out to be 20.3%. Also, the IC50 came to 0.0166 µM with A549, a NSCLC cell line (Homo sapiens); 0.0036 µM in the data set with MDA-MB-468 (TNBC) cells (setting [5]); 0.0211 µM in data set [2] (setting [6]).

`CC[C@@]1(O)C(=O)OCc2c1cc1n(c2=O)Cc2c-1nc1cc(F)c(C)c3c1c2CC[C@H]3N` [Compound C-1b]: in data set [1], the viability at 5 days amounted to 14.5%. Moreover, the IC50 with A549, a NSCLC cell line (Homo sapiens) was determined as 0.0137 µM; in the data set with MDA-MB-468 (TNBC) cells (setting [5]), 0.0031 µM; in data set [2] (setting [6]), 0.0185 µM.

In the case of `CCc1c(F)cc2nc3c(c4c2c1CC[C@H]4N)Cn1c-3cc2c(c1=O)COC(=O)[C@]2(O)CC` [Compound C-2a], the viability at 5 days was 19.7% in data set [1] and 4.6% in data set [3]. The IC50 came to 0.0189 µM with A549, a NSCLC cell line (Homo sapiens); 0.0016 µM in the data set with MDA-MB-468 (TNBC) cells (setting [7]); 0.0056 µM in the data set on MDA-MB-468 (TNBC) cells (setting [5]); 0.0057 µM in data set [2] (setting [8]); 0.0401 µM in data set [2] (setting [6]). Also, the Min cell viability in data set [2] (human, 5 days) was 4.8. Besides, the “inhibition of cells proliferation” value in data set [4] is “inhibited cells proliferation in a concentration-dependent manner”.

`CCc1c(F)cc2nc3c(c4c2c1CC[C@@H]4N)Cn1c-3cc2c(c1=O)COC(=O)[C@]2(O)CC` [Compound C-2b]: the viability at 5 days in data set [1] is 23.6%; in data set [3], 1.9%. Also, the IC50 in the data set on A549, a NSCLC cell line (Homo sapiens) was 0.0242 µM; in the data set on MDA-MB-468 (TNBC) cells (setting [7]) it was 0.001 µM; in the data set with MDA-MB-468 (TNBC) cells (setting [5]), 0.0052 µM; in data set [2] (setting [8]) it was 0.0056 µM; in data set [2] (setting [6]), roughly 0.0527 µM. Further, the Min cell viability in data set [2] (human, 5 days) turned out to be 3.7. The “inhibition of cells proliferation” value in data set [4] is “inhibited cells proliferation in a concentration-dependent manner”.

In the case of `CC[C@@]1(O)C(=O)OCc2c1cc1n(c2=O)Cc2c-1nc1cc(F)c(C(C)C)c3c1c2[C@H](N)CC3` [Compound C-3a], in data set [1], the viability at 5 days stood at 23.8%. The half-inhibitory concentration (IC50) in the data set on A549, a NSCLC cell line (Homo sapiens) was determined as 0.0366 µM; in the data set on MDA-MB-468 (TNBC) cells (setting [5]), 0.0088 µM; in data set [2] (setting [6]), 0.0766 µM.

`CC[C@@]1(O)C(=O)OCc2c1cc1n(c2=O)Cc2c-1nc1cc(F)c(C(C)C)c3c1c2[C@@H](N)CC3` [Compound C-3b] gave a viability at 5 days in data set [1] of 30.6%. Further, the IC50 stood at 0.114 µM with A549, a NSCLC cell line (Homo sapiens) and 0.0176 µM with MDA-MB-468 (TNBC) cells (setting [5]).

Consider `CC[C@@]1(O)C(=O)OCc2c1cc1n(c2=O)Cc2c-1nc1cc(F)c(C)c3c1c2[C@H](Nc1cccc(CN)c1)CC3` [Compound C-4a], for which the viability at 5 days in data set [1] was found to be 83%. Also, the concentration for half-maximal inhibition (IC50) with MDA-MB-468 (TNBC) cells (setting [5]) is 0.115 µM.

For `CC[C@@]1(O)C(=O)OCc2c1cc1n(c2=O)Cc2c-1nc1cc(F)c(C)c3c1c2[C@@H](NC(=O)CO)CC3` [DXD, reference compound], the IC50 was found to be 0.126 µM with A549, a NSCLC cell line; 0.0032 µM in the data set on MDA-MB-468 (TNBC) cells (first round (Table 1), 5 days); 0.0042 µM with MDA-MB-468 (TNBC) cells (second round (Table 2)); 0.0252 µM in data set [2] (setting [9]); 0.105 µM in data set [2] (HT29, second round (Table 2)). For the same molecule, the Min cell viability in the data set on A549, a NSCLC cell line was determined as 28.4; in the data set on MDA-MB-468 (TNBC) cells (first round (Table 1), 5 days), 1.2; in the data set on MDA-MB-468 (TNBC) cells (second round (Table 2)) it was 4.1; in data set [2] (setting [9]), 4.0; in data set [2] (HT29, second round (Table 2)) it was 11.4. Besides, the “inhibition of cells proliferation” value in data set [4] was “inhibited cells proliferation in a concentration-dependent manner”.

Consider `CC[C@H](C)[C@@H]([C@@H](CC(=O)N1CCC[C@H]1[C@H](OC)[C@@H](C)C(=O)N[C@H](C)[C@@H](O)c1ccccc1)OC)N(C)C(=O)[C@@H](NC(=O)[C@@H](NC)C(C)C)C(C)C` [MMAE, reference compound] (H-[NMeV]V[Dil][Dolaproine]-X1), for which the IC50 was 0.002 µM with A549, a NSCLC cell line; 0.0001 µM in the data set on MDA-MB-468 (TNBC) cells (first round (Table 1), 5 days); 0.0003 µM with MDA-MB-468 (TNBC) cells (second round (Table 2)); roughly 0.0005 µM in data set [2] (setting [9]); 0.0011 µM in data set [2] (HT29, second round (Table 2)). The Min cell viability in the data set with MDA-MB-468 (TNBC) cells (first round (Table 1), 5 days) came to 4.6; with MDA-MB-468 (TNBC) cells (second round (Table 2)) it was 6.3; in data set [2] (setting [9]), 21.3; in data set [2] (HT29, second round (Table 2)), 35.5. The “inhibition of cells proliferation” value in data set [4] is listed as “inhibited cells proliferation in a concentration-dependent manner”.

The term viability denotes a per cent measure of how many cells are alive, often set against a control. A lower viability goes with more harm to the cells. The term IC50 denotes the concentration needed to halve the response being measured. A low value points to inhibition by little substance.
